The values below come from US7772180B2, “Hepatitis C virus inhibitors” (Bristol-Myers Squibb Company, priority 2006, dated 2010).

Test [1] addresses T1, human neutrophil elastase (HNE) (Homo sapiens, UniProt P08246).
T1 construct: purchased Sigma, EMDbiosciences
T1 sequence (P08246 30-267): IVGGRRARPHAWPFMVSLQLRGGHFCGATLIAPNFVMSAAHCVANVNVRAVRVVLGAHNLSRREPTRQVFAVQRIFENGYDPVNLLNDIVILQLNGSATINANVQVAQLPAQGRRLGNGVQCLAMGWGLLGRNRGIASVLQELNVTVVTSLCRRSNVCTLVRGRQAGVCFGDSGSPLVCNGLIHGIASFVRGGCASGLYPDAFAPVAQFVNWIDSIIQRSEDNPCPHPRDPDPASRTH
The test is described as follows: Specificity assay, human neutrophil elastase. It counts as biochemical. As to conditions: read-out: HLE activity in the specificity assays (IC50). Here is the method:
(§1) The specificities of compounds of the present disclosure were determined against a variety of serine proteases: human neutrophil elastase (HNE), porcine pancreatic elastase (PPE) and human pancreatic chymotrypsin and one cysteine protease: human liver cathepsin B. In all cases a 96-well plate format protocol using either colorimetric p-nitroaniline (pNA) substrate or fluorometric Amino-Methyl-Coumarin (AMC) specific for each enzyme was used as described previously (PCT Patent Application No. WO 00/09543) with some modifications to the serine protease assays. All enzymes were purchased from Sigma, EMDbiosciences while the substrates were from Bachem, Sigma and EMDbiosciences.
The pNA assay for Chymotrypsin included a 1 h enzyme-inhibitor pre-incubation at room temperature followed by addition of substrate and hydrolysis to ˜15% conversion as measured on a Spectramax Pro microplate reader. Compound concentrations varied from 100 to 0.4 μM depending on their potency. Cathepsin B, HNE, and PPE assays each was initiated by addition of substrate to enzyme-inhibitor pre-incubated for 10 min at room temperature and hydrolysis to 15% conversion as measured on cytofluor.
50 mM Tris-HCl, pH 8.0, 50 mM NaCl, 0.1 mM EDTA, 3% DMSO, 0.02% Tween-20, 5 μM succ-AAPV-AMC and 20 nM HNE or 8 nM PPE;
(§2) The percentage of inhibition was calculated using the formula: [1−((UVinh−UVblank)/(UVctl−UVblank))]×100 […]

In test [2] the target is T2, human liver cathepsin B (Homo sapiens, UniProt P07858).
T2 construct: purchased Sigma, EMDbiosciences; host or cells: human liver
Nature of the test: Specificity assay, cathepsin B. The format is biochemical. As to conditions: read-out: Cathepsin B activity in the specificity assays (IC50). Here is the method: as §1
The pNA assay for Chymotrypsin included a 1 h enzyme-inhibitor pre-incubation at room temperature followed by addition of substrate and hydrolysis to ˜15% conversion as measured on a Spectramax Pro microplate reader. Compound concentrations varied from 100 to 0.4 μM depending on their potency. Cathepsin B, HNE, and PPE assays each was initiated by addition of substrate to enzyme-inhibitor pre-incubated for 10 min at room temperature and hydrolysis to 15% conversion as measured on cytofluor. […]
as §2

SMILES strings stand for the structures. Where only a bound is given, the exact number is not on record here.

What is called IC50 is the concentration at which inhibition is half-maximal. With `C=C[C@@H]1C[C@]1(NC(=O)[C@@H]1C[C@@H](Oc2nc(N(C)C)cc3cc(OC)ccc23)CN1C(=O)C(Nc1cc(C)cc(C)n1)C(C)(C)C)C(=O)NS(=O)(=O)C1CC1` (single isomer, unassigned) [Compound 18], the concentration for half-maximal inhibition (IC50) in test [1] is more than 1.56 µM; in test [2], more than 50 µM.
